US20070105181A1, “Identification of cancer biomarkers and phosphorylated pdroteins” (Invitrogen Corporation, priority 2005, published 2007)

Test system: Dok-2 phosphorylation (tyrosine 299)
Assay: SILAC/MALDI-TOF quantitation of Dok-2 phosphopeptide in CML cells after STI571 treatment
Type: cell-based
Details: human CML cells
Experimental: SILAC is a also powerful tool for quantifying posttranslational modifications. We examined the change in the level of phosphophorylation of Dok-2 in response to treatment of STI571, an inhibitor of Bcr-Abl kinase, in human chronic myelogenous leukemia cells. As a control, aliquots of heavy tyrosine (U—^13C9) labeled cells (5×10^8) were mixed equally with light tyrosine (^12C) labeled cells (5×10^8) before the drug treatment.
A first aliquot of heavy tyrosine labeled cells (5×10^8) was preincubated with 1 μM of STI571 at 37° C. for 1 h and then mixed with an equal number of light (natural abundance) isotope tyrosine labeled cells. A second aliquot of heavy tyrosine labeled cells (5×10^8) was preincubated with 1 μM of STI571 at 37° C. for 2 h and then also mixed with an equal number of light (natural abundance) isotope tyrosine labeled cells. In both cases, the cell mixtures (1×10^9) were lysed with NP40 lysis buffer and incubated with 30 μg of the GST fusion of the SH2 domain of SHIP1 conjugated to glutathione Sepharose 4B. Affinity captured proteins were then analyzed by SDS-PAGE on a NuPAGE® acrylamide gel (Invitrogen, Carlsbad, Calif.) and stained with SimplyBlue™ SafeStain™ protein gel stain (Invitrogen, Carlsbad, Calif.). The Dok-2 protein bands from each mixed cell sample were excised and digested with trypsin. The resulting tryptic peptides were analyzed by MALDI-TOF.

Cc1ccc(NC(=O)c2ccc(CN3CCN(C)CC3)cc2)cc1Nc1nccc(-c2cccnc2)n1 [STI571]
amount of phosphopeptide of Dok2 reduced to (peptide ratio m/z 1688 to m/z 1697) (1 μM STI571, 37° C., 1 h): 75% | inhibition of heavy labeled Dok-2 phosphopeptide (ratio of isotopic peptide pairs) (1 μM STI571, 37° C., 2 h): more than 90% | decrease of phosphorylation level of Dok-2 Tyrosine 299 site (STI571 treatment, 1 h): 75%
